The nature of series [1]: Plasma pharmacokinetics of CBD after single IV or oral administration. It counts as in vivo, male Sprague-Dawley rats. The conditions noted are these: male, Sprague-Dawley, IV 2 mg/kg, rat, read-out: Concentration (CBD in blood plasma).
Experiment in series [2]: as above
It counts as in vivo, male Sprague-Dawley rats. The following applies: male, Sprague-Dawley, IV 2 mg/kg, rat. The source says: Plasma pharmacokinetics following single intravenous cannabidiol (CBD solid) or oral administration (4 emulsions+1 non-emulsified oil) was investigated in male Sprague-Dawley rats. Rats were used for this study because they are an accepted model for characterization of pharmacokinetics of formulations being developed for humans. Twelve (12) single-catheterized rats (275-300 g, jugular vein catheter) were obtained from Envigo and divided into 6 groups of 2 animals each. Rats were acclimated for 5 days; the temperature was controlled from 68-79° F., the humidity was controlled from 20% to 70% and the light source was fluorescent lamps with a light/dark cycle of 12/12 hours on/off. No concurrent medication was administered during the study, and all rats had access (ad-libitum) to Tekland Rodent Chow 2018 (Envigo) and tap water throughout the live phase. All animals were randomly placed. Post acclimation, all animals received a single IV (tail vein injection) or oral treatment of one of the nanoemulsions, a non-emulsified oil, or a positive control based on Table 7. Group 1 animals received a single IV injection while Groups 2-6 received a single oral administration. The non-emulsified oil is CBD isolate dissolved in MCT oil. WFI=sterile water for injection. Dosing and dose volume are in […] (body weight) and mL/kg (body weight) respectively.
The CBD concentration in blood plasma samples obtained at various collection times (15, 30, 60, 120, 180, 240, 480 minutes and 24 hr) was determined.
The following pharmacokinetic parameters were determined: Bioavailability absolute (Fabs), Bioavailability relative to non-emulsified (Frel), the time at maximum concentration, the maximum concentration, and half-life (T1/2).

Each structure is given as a SMILES string.

Experimental findings from patent US20220117890A1, “CANNABINOID EMULSIONS” (CORN PRODUCTS DEVELOPMENT, INC., priority 2020, published 2022) are described below.

As to `C=C(C)[C@@H]1CCC(C)=C[C@H]1c1c(O)cc(CCCCC)cc1O` [CBD solid, cannabidiol], the concentration at 5 min in series [1] amounted to 1560 ng/mL. In series [2], the AUC(0-inf) was found to be 2010 ng·h/mL and the AUC(0-t) was 1980 ng·h/mL. For the same molecule, the Cmax in series [2] (read-out: Cmax (maximum concentration)) was found to be 1560 ng/mL. The Tmax in series [2] (read-out: Tmax (time at maximum concentration)) amounted to 15 min. Besides, the concentration at 30 min in series [2] (time 30 min, read-out: Concentration (CBD in blood plasma)) was 481 ng/mL. In series [2] (time 60 min, read-out: Concentration (CBD in blood plasma)), the concentration at 60 min was 341 ng/mL. The concentration at 120 min in series [2] (time 120 min, read-out: Concentration (CBD in blood plasma)) worked out at 178 ng/mL. The concentration at 180 min in series [2] (time 180 min, read-out: Concentration (CBD in blood plasma)) was determined as 89.2 ng/mL. In addition, the concentration at 240 min in series [2] (time 240 min, read-out: Concentration (CBD in blood plasma)) amounted to 44.2 ng/mL. Besides, the concentration at 480 min in series [2] (time 480 min, read-out: Concentration (CBD in blood plasma)) stood at 10.6 ng/mL. Besides, the concentration at 24 hr in series [2] (time 24 hr, read-out: Concentration (CBD in blood plasma)) came to 5.2 ng/mL.

The AUC(0-inf) is total exposure, with the tail of the curve extrapolated. What is called AUC(0-t) is the area under the concentration-time curve up to a stated or last time point. Low readings indicate low exposure, high ones high exposure.
